Data taken from ChEMBL document CHEMBL5579851, “Synthesis and antifungal evaluation of novel triazole derivatives bearing a pyrazole-methoxyl moiety” (Eur J Med Chem, 2024).
In brackets after ≈: the same amount, converted by molar mass.

Experiments:
Saccharomyces cerevisiae [1] = test: Antifungal activity against recombinant Saccharomyces cerevisiae Y525 overexpressing CaMdr1 assessed as inhibition of fungal growth incubated for 48 hrs by CLSI based broth microdilution assay; format: functional
Saccharomyces cerevisiae [2] = test: Antifungal activity against recombinant Saccharomyces cerevisiae Y570 overexpressing CaCdr1 assessed as inhibition of fungal growth incubated for 48 hrs by CLSI based broth microdilution assay; format: functional
Saccharomyces cerevisiae [3] = test: Antifungal activity against recombinant Saccharomyces cerevisiae Y2765 overexpressing CauMdr1 assessed as inhibition of fungal growth incubated for 48 hrs by CLSI based broth microdilution assay; format: functional
Saccharomyces cerevisiae [4] = test: Antifungal activity against recombinant Saccharomyces cerevisiae Y2766 overexpressing CauCdr1 assessed as inhibition of fungal growth incubated for 48 hrs by CLSI based broth microdilution assay; format: functional
Saccharomyces cerevisiae [5] = test: Antifungal activity against recombinant Saccharomyces cerevisiae Y2411 overexpressing ScErg11 assessed as inhibition of fungal growth incubated for 48 hrs by CLSI based broth microdilution assay; format: functional
Saccharomyces cerevisiae [6] = test: Antifungal activity against recombinant Saccharomyces cerevisiae Y2300 overexpressing ScErg11 assessed as inhibition of fungal growth incubated for 48 hrs by CLSI based broth microdilution assay; format: functional
Saccharomyces cerevisiae [7] = test: Antifungal activity against recombinant Saccharomyces cerevisiae Y2462 overexpressing ScErg11/ScNcp1 assessed as inhibition of fungal growth incubated for 48 hrs by CLSI based broth microdilution assay; format: functional
Saccharomyces cerevisiae [8] = test: Antifungal activity against recombinant Saccharomyces cerevisiae Y2459 overexpressing CaErg11/CaCpr assessed as inhibition of fungal growth incubated for 48 hrs by CLSI based broth microdilution assay; format: functional
Saccharomyces cerevisiae [9] = test: Antifungal activity against recombinant Saccharomyces cerevisiae Y2374 overexpressing CgErg11 assessed as inhibition of fungal growth incubated for 48 hrs by CLSI based broth microdilution assay; format: functional
Saccharomyces cerevisiae [10] = test: Antifungal activity against recombinant Saccharomyces cerevisiae Y2721 overexpressing CpErg11/CpCpr assessed as inhibition of fungal growth incubated for 48 hrs by CLSI based broth microdilution assay; format: functional
Saccharomyces cerevisiae [11] = test: Antifungal activity against recombinant Saccharomyces cerevisiae Y2767 overexpressing CauErg11 assessed as inhibition of fungal growth incubated for 48 hrs by CLSI based broth microdilution assay; format: functional
Saccharomyces cerevisiae [12] = test: Antifungal activity against recombinant Saccharomyces cerevisiae Y2711 overexpressing CnErg11 assessed as inhibition of fungal growth incubated for 48 hrs by CLSI based broth microdilution assay; format: functional
Saccharomyces cerevisiae [13] = test: Antifungal activity against recombinant Saccharomyces cerevisiae Y2301 overexpressing ScErg11 Y140F mutant assessed as inhibition of fungal growth incubated for 48 hrs by CLSI based broth microdilution assay; format: functional
Saccharomyces cerevisiae [14] = test: Antifungal activity against recombinant Saccharomyces cerevisiae Y2513 overexpressing ScErg11 Y140H mutant assessed as inhibition of fungal growth incubated for 48 hrs by CLSI based broth microdilution assay; format: functional
Saccharomyces cerevisiae [15] = test: Antifungal activity against recombinant Saccharomyces cerevisiae Y2716 overexpressing CpErg11 Y132F mutant/ CpCpr assessed as inhibition of fungal growth incubated for 48 hrs by CLSI based broth microdilution assay; format: functional
Saccharomyces cerevisiae [16] = test: Antifungal activity against recombinant Saccharomyces cerevisiae Y2768 overexpressing CauErg11 T132F mutant assessed as inhibition of fungal growth incubated for 48 hrs by CLSI based broth microdilution assay; format: functional
Saccharomyces cerevisiae [17] = test: Antifungal activity against recombinant Saccharomyces cerevisiae Y2769 overexpressing CauErg11 K143R mutant assessed as inhibition of fungal growth incubated for 48 hrs by CLSI based broth microdilution assay; format: functional
Candida albicans [18] = test: Antifungal activity against Candida albicans SC5314 assessed as inhibition of fungal growth incubated for 48 hrs by CLSI based broth microdilution assay; format: functional
Candida albicans [19] = test: Antifungal activity against Candida albicans 10231 assessed as inhibition of fungal growth incubated for 48 hrs by CLSI based broth microdilution assay; format: functional
Cryptococcus neoformans = test: Antifungal activity against Cryptococcus neoformans 32609 assessed as inhibition of fungal growth incubated for 72 hrs by CLSI based broth microdilution assay; format: functional
Nakaseomyces glabratus = test: Antifungal activity against Candida glabrata 537 assessed as inhibition of fungal growth incubated for 48 hrs by CLSI based broth microdilution assay; format: functional
Candida parapsilosis = test: Antifungal activity against Candida parapsilosis 22019 assessed as inhibition of fungal growth incubated for 48 hrs by CLSI based broth microdilution assay; format: functional; settings: Lodderomyces parapsilosis
Pichia kudriavzevii = test: Antifungal activity against Candida krusei 4996 assessed as inhibition of fungal growth incubated for 48 hrs by CLSI based broth microdilution assay; format: functional
Candida tropicalis [20] = test: Antifungal activity against Candida tropicalis 8915 assessed as inhibition of fungal growth incubated for 48 hrs by CLSI based broth microdilution assay; format: functional
Candida albicans [21] = test: Antifungal activity against fluconazole-resistant Candida albicans 901 assessed as inhibition of fungal growth incubated for 48 hrs by CLSI based broth microdilution assay; format: functional
Candida albicans [22] = test: Antifungal activity against fluconazole-resistant Candida albicans 904 assessed as inhibition of fungal growth incubated for 48 hrs by CLSI based broth microdilution assay; format: functional
[Candida] auris [23] = Antifungal activity against fluconazole-resistant Candida auris 891 assessed as inhibition of fungal growth incubated for 48 hrs by CLSI based broth microdilution assay; format: functional; settings: Candidozyma auris
[Candida] auris [24] = Antifungal activity against fluconazole-resistant Candida auris 918 assessed as inhibition of fungal growth incubated for 48 hrs by CLSI based broth microdilution assay; format: functional; settings: Candidozyma auris
[Candida] auris [25] = Antifungal activity against fluconazole-resistant Candida auris 919 assessed as inhibition of fungal growth incubated for 48 hrs by CLSI based broth microdilution assay; format: functional; settings: Candidozyma auris
Candida tropicalis [26] = test: Potency index, ratio of ravuconazole MIC to test compound MIC for antifungal activity against Candida tropicalis 8915 assessed as inhibition of fungal growth incubated for 48 hrs by CLSI based broth microdilution assay; format: functional
Candida tropicalis [27] = test: Potency index, ratio of fluconazole MIC to test compound MIC for antifungal activity against Candida tropicalis 8915 assessed as inhibition of fungal growth incubated for 48 hrs by CLSI based broth microdilution assay; format: functional
[28] = Cytotoxicity against HUVEC cells assessed as cell viability at 128 ug/ml incubated for 24 hrs by CCK-8 assay relative to control; format: toxicity, cell-based; settings: human, at 128 µg/mL, read-out: Activity

Compound | MIC (Saccharomyces cerevisiae [1]) [µg/mL] | MIC (Saccharomyces cerevisiae [2]) [µg/mL] | MIC (Saccharomyces cerevisiae [3]) [µg/mL] | MIC (Saccharomyces cerevisiae [4]) [µg/mL] | MIC (Saccharomyces cerevisiae [5]) [µg/mL] | MIC (Saccharomyces cerevisiae [6]) [µg/mL] | MIC (Saccharomyces cerevisiae [7]) [µg/mL] | MIC (Saccharomyces cerevisiae [8]) [µg/mL] | MIC (Saccharomyces cerevisiae [9]) [µg/mL] | MIC (Saccharomyces cerevisiae [10]) [µg/mL] | MIC (Saccharomyces cerevisiae [11]) [µg/mL] | MIC (Saccharomyces cerevisiae [12]) [µg/mL] | MIC (Saccharomyces cerevisiae [13]) [µg/mL] | MIC (Saccharomyces cerevisiae [14]) [µg/mL] | MIC (Saccharomyces cerevisiae [15]) [µg/mL] | MIC (Saccharomyces cerevisiae [16]) [µg/mL] | MIC (Saccharomyces cerevisiae [17]) [µg/mL] | MIC (Candida albicans [18]) [µg/mL] | MIC (Candida albicans [19]) [µg/mL] | MIC (Cryptococcus neoformans) [µg/mL] | further results
CC(=O)N1CCN(c2ccc(OCC3COC(Cn4ccnc4)(c4ccc(Cl)cc4Cl)O3)cc2)CC1 (centres undefined) [KETOCONAZOLE] | 0.25 | 64 | 0.25 | 8 | 0.25 | 1 | 1 | 0.5 | 0.5 | 0.5 | 0.5 | 8 | 2 | 1 | 2 | 1 | 1 | – | – | – | –
C[C@@H](OCc1ccn(Cc2ccc(Br)cc2)n1)[C@](O)(Cn1cncn1)c1ccc(F)cc1F | – | – | – | – | – | – | – | – | – | – | – | – | – | – | – | – | – | ≤ 0.125 | ≤ 0.125 | 0.25 (≈ 0.482 µM) | MIC (Nakaseomyces glabratus): ≤ 0.125 µg/mL; MIC (Candida parapsilosis): 0.25 µg/mL (≈ 0.482 µM); MIC (Pichia kudriavzevii): 2 µg/mL (≈ 3.86 µM); MIC (Candida tropicalis [20]): 0.25 µg/mL (≈ 0.482 µM); MIC (Candida albicans [21]): 32 µg/mL (≈ 61.7 µM); MIC (Candida albicans [22]): 16 µg/mL (≈ 30.9 µM); MIC ([Candida] auris [23]): 16 µg/mL (≈ 30.9 µM); MIC ([Candida] auris [24]): 8 µg/mL (≈ 15.4 µM); MIC ([Candida] auris [25]): 8 µg/mL (≈ 15.4 µM); Ratio (Candida tropicalis [26]): 32; Ratio (Candida tropicalis [27]): 256
C[C@@H]1[C@H](O)[C@@H](C)/C=C/C=C/C=C/C=C/C=C/C=C/C=C/[C@H](O[C@@H]2O[C@H](C)[C@@H](O)[C@H](N)[C@@H]2O)C[C@@H]2O[C@](O)(C[C@@H](O)C[C@@H](O)[C@H](O)CC[C@@H](O)C[C@@H](O)CC(=O)O[C@H]1C)C[C@H](O)[C@H]2C(=O)O [AMPHOTERICIN B] | – | – | – | – | – | – | – | – | – | – | – | – | – | – | – | – | – | – | – | – | viability at 24 h, 128 ug/ml [28]: 30.5%
C[C@@H](c1nc(-c2ccc(C#N)cc2)cs1)[C@](O)(Cn1cncn1)c1ccc(F)cc1F [RAVUCONAZOLE] | 0.063 | 16 | 0.016 | 2 | 0.008 | 0.008 | 0.008 | 0.008 | 0.008 | 0.008 | 0.016 | 0.008 | 0.016 | 0.008 | 0.008 | 0.008 | 0.008 | ≤ 0.125 | ≤ 0.125 | ≤ 0.125 | MIC (Nakaseomyces glabratus): ≤ 0.125 µg/mL; MIC (Candida parapsilosis): ≤ 0.125 µg/mL; MIC (Pichia kudriavzevii): 1 µg/mL (≈ 2.29 µM); MIC (Candida tropicalis [20]): 8 µg/mL (≈ 18.3 µM); MIC (Candida albicans [21]): 16 µg/mL (≈ 36.6 µM); MIC (Candida albicans [22]): 16 µg/mL (≈ 36.6 µM); MIC ([Candida] auris [23]): 1 µg/mL (≈ 2.29 µM); MIC ([Candida] auris [24]): 1 µg/mL (≈ 2.29 µM); MIC ([Candida] auris [25]): 1 µg/mL (≈ 2.29 µM)
C[C@@H](c1ncncc1F)[C@](O)(Cn1cncn1)c1ccc(F)cc1F [VORICONAZOLE] | 0.5 | 8 | 1 | 2 | 0.008 | 0.0313 | 0.063 | 0.016 | 0.0313 | 0.0313 | 0.0313 | 0.008 | 0.0313 | 0.0313 | 0.25 | 0.25 | 0.063 | – | – | – | –
C[C@@H](OCc1ccn(Cc2cc(F)ccc2F)n1)[C@](O)(Cn1cncn1)c1ccc(F)cc1F | – | – | – | – | – | – | – | – | – | – | – | – | – | – | – | – | – | ≤ 0.125 | 0.25 (≈ 0.526 µM) | 0.5 (≈ 1.05 µM) | MIC (Nakaseomyces glabratus): 0.25 µg/mL (≈ 0.526 µM); MIC (Candida parapsilosis): 0.5 µg/mL (≈ 1.05 µM); MIC (Pichia kudriavzevii): 4 µg/mL (≈ 8.41 µM); MIC (Candida tropicalis [20]): 0.25 µg/mL (≈ 0.526 µM); MIC (Candida albicans [21]): > 64 µg/mL; MIC (Candida albicans [22]): > 64 µg/mL; MIC ([Candida] auris [23]): 16 µg/mL (≈ 33.7 µM); MIC ([Candida] auris [24]): 32 µg/mL (≈ 67.3 µM); MIC ([Candida] auris [25]): 32 µg/mL (≈ 67.3 µM)
C[C@@H](OCc1ccn(Cc2ccc(I)cc2)n1)[C@](O)(Cn1cncn1)c1ccc(F)cc1F | – | – | – | – | – | – | – | – | – | – | – | – | – | – | – | – | – | ≤ 0.125 | ≤ 0.125 | 0.25 (≈ 0.442 µM) | MIC (Nakaseomyces glabratus): ≤ 0.125 µg/mL; MIC (Candida parapsilosis): 0.25 µg/mL (≈ 0.442 µM); MIC (Pichia kudriavzevii): 2 µg/mL (≈ 3.54 µM); MIC (Candida tropicalis [20]): 0.5 µg/mL (≈ 0.884 µM); MIC (Candida albicans [21]): 8 µg/mL (≈ 14.2 µM); MIC (Candida albicans [22]): 16 µg/mL (≈ 28.3 µM); MIC ([Candida] auris [23]): 16 µg/mL (≈ 28.3 µM); MIC ([Candida] auris [24]): 16 µg/mL (≈ 28.3 µM); MIC ([Candida] auris [25]): 4 µg/mL (≈ 7.08 µM)
CC[C@@H]([C@H](C)O)n1ncn(-c2ccc(N3CCN(c4ccc(OC[C@@H]5CO[C@@](Cn6cncn6)(c6ccc(F)cc6F)C5)cc4)CC3)cc2)c1=O [POSACONAZOLE] | 0.125 | 8 | 0.125 | 0.125 | 0.5 | 1 | 0.125 | 0.125 | 0.125 | 0.25 | 0.063 | 0.0313 | 2 | 2 | 1 | 1 | 1 | – | – | – | –
